Columns and labels:
STAT3 = test: ELISA ratio of phospho-STAT3 to pan-STAT3; assay type: cell-based, human; settings: 1 nM; 3 h
Description: (§1) The human neuroblastoma cell line, SH-SY5Y (ECACC, UK) was maintained in Dulbecco's Modified Eagle Medium supplemented with glucose ([…]) and 10% (v/v) cosmic calf serum (Fisher Scientific, UK) at 37° C. in a humidified atmosphere of 5% CO2, 95% air and allowed to reach 70-80% confluence before seeding. Cells (passage 10-18) were plated at 10 000 cells per well in 96 well tissue culture plates (Nunc, VWR, UK) and at a density of 2×10^5 cells in 35 mm dishes for protein extraction. To induce differentiation, cells were cultured in DMEM supplemented with glucose ([…]), 1% (v/v) cosmic calf serum and 10 μM retinoic acid for 5 days. Thereafter they were incubated in DMEM supplemented with glucose ([…]), serum replacement 2 (2%; Sigma, UK) and 18 μM 5-fluorodeoxyuridine to inhibit proliferation of undifferentiated cells. The 50% of the medium was changed every 2-3 days and pharmacological treatment was carried out 7 days after switching to this medium. Reagents used were (from Sigma UK unless stated) 0.1-10 nM human leptin and leptin (116-130); 0.1-10 nM leptin (22-56; Bachem; Switzerland); 10 nM leptin (116-121) leptin (117-122), leptin (124-129) or leptin (125-130; all Severn Biotech, UK); 5 μM copper chloride; […], 5 μM WP1066 or 50 nM wortmannin. […]

Akt = test: ELISA ratio of phospho-Akt to pan-Akt; assay type: cell-based, human; settings: 1 nM; 3 h
Description: as §1

[1] = Samson et al. 1996; cited from earlier work

| Substance | ratio of phosphorylated STAT3 to pan STAT3 (STAT3) | ratio of phosphorylated Akt to pan Akt (Akt) | food intake [1] |
| --- | --- | --- | --- |
| SCSLPQTSGLQKPES (listed as Mus musculus) [leptin (116-130)] | increased markedly | an increase in the ratio of phosphorylated Akt to pan Akt |  |
| leptin (22-56): leptin fragment amino acids 22-56 (Bachem), comparison fragment (VPIQKVQDDTKTLIKTIVTRINDISHTQSVSSKQK; UniProt P41159 22-56, looked up, fragment) [reference compound] |  |  | significant reductions in food intake |

Source: patent US20200255492A1, “LEPTIN PEPTIDES AND THEIR USE FOR TREATING NEUROLOGICAL DISORDERS” (UNIVERSITY OF DUNDEE, priority 2017, published 2020)
